Measurements taken from patent US7977364B2, “Indazoles, benzisoxazoles and benzisothiazoles and their use as estrogenic agents” (Laboratoire Thermamex, priority 2004, dated 2011).

Tests used:
[1] = molecular target: purified full-length recombinant human ERβ (Homo sapiens, UniProt Q92731); test: Estrogen receptor β competitive radiometric binding assay ([3H]-E2); conditions: for RBA (%) Mean ± S.E.M, ER β: ratio of IC50s of E2 and competitor, E2 set at 100%; for R (IC50s) αβ: ratio of the IC50 for ERα to the IC50 for ERβ
Sequence of purified full-length recombinant human ERβ (Q92731 whole entry): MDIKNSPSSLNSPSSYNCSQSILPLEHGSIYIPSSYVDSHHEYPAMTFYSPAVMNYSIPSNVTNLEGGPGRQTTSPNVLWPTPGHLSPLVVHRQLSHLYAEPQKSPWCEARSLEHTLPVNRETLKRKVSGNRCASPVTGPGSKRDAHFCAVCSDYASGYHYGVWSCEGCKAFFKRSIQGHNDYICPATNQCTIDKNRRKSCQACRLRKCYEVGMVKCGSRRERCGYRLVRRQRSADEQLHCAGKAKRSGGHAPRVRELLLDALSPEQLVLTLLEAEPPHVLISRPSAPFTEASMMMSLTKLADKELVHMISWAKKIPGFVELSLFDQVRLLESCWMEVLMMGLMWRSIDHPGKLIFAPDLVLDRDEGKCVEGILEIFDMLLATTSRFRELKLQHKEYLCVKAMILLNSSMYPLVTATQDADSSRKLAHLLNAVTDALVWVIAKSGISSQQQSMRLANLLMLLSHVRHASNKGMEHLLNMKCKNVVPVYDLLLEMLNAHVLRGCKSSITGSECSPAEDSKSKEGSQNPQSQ
Description: Relative binding affinities (RBA) were determined by competitive radiometric binding assays, using purified full-length recombinant human ERα and ERβ (PanVera, Madison, Wis.). […] After shaking for a few seconds and centrifugation at 1500 g and 4° C. for 10 minutes, 150 μl/well of Optiphase ‘Super Mix’ scintillation liquid was mixed with 50 μl of supernatant of each sample and the radioactivity was measured in a MicroBeta counter (Wallac, Turku, Finland). Data were evaluated by a sigmoidal dose-response curve (Prism, GraphPad Software Inc.) to estimate the concentration of competitor at half-maximal specific binding (IC50). […] The selectivity for ERα and ERβ was obtained from the ratio R of the IC50 for ERα to the IC50 for ERβ for each test compound.

[2] = test system: human breast cancer cell line MCF-7; test: Proliferative activity in vitro (ATP luminescence, 6 days); type: cell-based; conditions: Homo sapiens, MCF7, 144 h; for activity at 1 µM: MCF-7, 10^−6 M, read-out: Effect at 10^−6 M (% of control); for activity at 1 µM / activity at 0.01 µM: six days; for activity at 0.01 µM: MCF-7, 10^−8 M, read-out: Effect at 10^−8 M (% of control); for EC50: MCF-7, six days, read-out: Cell proliferation EC50 (nM) ± S.E.M
Description: The proliferative effect of the compounds of the invention was evaluated on human breast cancer cell line MCF-7 by measuring the number of viable cells after 6 days of treatment.
MCF-7 cells were routinely cultured as monolayers in Dulbecco's modified Eagle's medium (DMEM) containing 4 mM Glutamax and 4.5 g/l glucose and supplemented with 5% (v/v) decomplemented fetal calf serum (dFCS) and antibiotics.
Cells were plated at 2.10^6 cells/75 cm^2 flasks and incubated at 37° C. in a humidified atmosphere containing 5% CO2. They were passaged once weekly to maintain continuous exponential growth. Forty eight hours before the start of an experiment, near-confluent cells were changed to a phenol red free DMEM containing 5% steroid-stripped dFCS by dextran coated charcoal treatment (DCC-DMEM). On the day of the experiment, cells were harvested by brief exposure to trypsin and plated in DCC-DMEM in 96-well microplates at a density of 4.10^3 cells/well. The next day, the medium was renewed and test compounds, diluted appropriately in estrogen-free DMEM, were added and incubated for six days. […] At the end of the incubation period, cell proliferation was evaluated by quantitation of the cellular ATP content which signals the presence of metabolically active cells.
The assay, based on the ATP-dependent luciferase reaction, enables generation of a luminescent signal proportional to the amount of ATP present. As there is a linear relationship between the amount of ATP and the number of viable cells present in culture, the luminescent signal allowed to precisely evaluate cell proliferation (Crouch, S. P. M. et al. J. Immunol. Meth., 1993, 160, 81; Kangas, L. et al. Med. Biol. 1984, 62, 338; Petty, R. D. et al. J. Biolum. Chemilum. 1995, 10, 29).
In brief, the microplates were inverted to discard the culture medium and 100 μl of fresh medium was added into each well. The microplates were equilibrated at room temperature for approximately 30 minutes. 100 μl of luciferase reagent was added into each well and contents were mixed for 2 minutes to induce cell lysis. The plates were incubated at room temperature for 10 minutes to stabilize luminescence signal.
Luminescence was recorded using a microplate reader (Wallac, model 1420 Victor^2) and results were expressed as percentage of the control luminescence. Sigmoidal dose-response curves were plotted and EC50 values were calculated for each compound in order to evaluate their proliferative potency.

[3] = test system: human endometrial adenocarcinoma Ishikawa cells; test: Estrogenic and anti-estrogenic activities in vitro: induction of alkaline phosphatase (APase) activity; type: cell-based; conditions: for EC50: Homo sapiens, Ishikawa, 96 h, compound alone, four days, ND = not detected, read-out: Estrogenic activity EC50 (nM) ± S.E.M
Description: The estrogenic and anti-estrogenic potentials of new compounds were evaluated using the induction of alkaline phosphatase (APase) activity, an estrogen specific response in human endometrial adenocarcinoma Ishikawa cells (Botella J., J Steroid Biochem Molec Biol, 1995, 55: 77-84; Littlefield et al., Endocrinology, 1990, 127: 2757-2762).
Ishikawa cells were routinely grown as monolayers in Dulbecco's Modified Eagle's medium (DMEM) containing 4 mM Glutamax I and supplemented with 10% of decomplemented fetal calf serum (dFCS) and antibiotics. They were maintained in a humidified atmosphere of 5% CO2 and 95% air, at 37±0.1° C. Stocks were performed once a week to maintain continuous exponential growth.
For studies, Ishikawa cells were plated into 96-well microplates. The next day, the medium was changed to a phenol red-free DMEM containing 5% dFCS stripped of endogenous estrogens by dextran coated charcoal treatment.
At the end of the incubation period, APase activity was assayed by a method involving the hydrolysis of p-nitrophenyl phosphate to p-nitrophenol at pH 9.8 and spectrophotometric determination of the product at 405 nm.
In brief, the microplates were first rinsed twice with cold phosphate buffered solution and then placed at −80° C. for at least 15 minutes. After thawing at room temperature for 5-10 minutes, the plates were put on ice and 50 μl ice-cold solution containing 5 mM p-nitrophenyl phosphate was added to each well. The plates were warmed to room temperature to allow for the development of the enzymatic reaction (t0). After a 15 to 60 minute incubation period, the intensity of the yellow color generated by the production of p-nitrophenol was measured into each well at 405 nm using a microplate reader (Wallac, model 1420 Victor^2). […] Sigmoidal dose-response curves were plotted and EC50 (estrogenic effect) and IC50 (anti-estrogenic effect) values were calculated for each compound.

[4] = molecular target: T1, purified full-length recombinant human ERα (Homo sapiens, UniProt P03372); test: Estrogen receptor α competitive radiometric binding assay ([3H]-E2); conditions: for RBA (%) Mean ± S.E.M, ER α: ratio of IC50s of E2 and competitor, E2 set at 100%
T1 sequence (P03372 1-595): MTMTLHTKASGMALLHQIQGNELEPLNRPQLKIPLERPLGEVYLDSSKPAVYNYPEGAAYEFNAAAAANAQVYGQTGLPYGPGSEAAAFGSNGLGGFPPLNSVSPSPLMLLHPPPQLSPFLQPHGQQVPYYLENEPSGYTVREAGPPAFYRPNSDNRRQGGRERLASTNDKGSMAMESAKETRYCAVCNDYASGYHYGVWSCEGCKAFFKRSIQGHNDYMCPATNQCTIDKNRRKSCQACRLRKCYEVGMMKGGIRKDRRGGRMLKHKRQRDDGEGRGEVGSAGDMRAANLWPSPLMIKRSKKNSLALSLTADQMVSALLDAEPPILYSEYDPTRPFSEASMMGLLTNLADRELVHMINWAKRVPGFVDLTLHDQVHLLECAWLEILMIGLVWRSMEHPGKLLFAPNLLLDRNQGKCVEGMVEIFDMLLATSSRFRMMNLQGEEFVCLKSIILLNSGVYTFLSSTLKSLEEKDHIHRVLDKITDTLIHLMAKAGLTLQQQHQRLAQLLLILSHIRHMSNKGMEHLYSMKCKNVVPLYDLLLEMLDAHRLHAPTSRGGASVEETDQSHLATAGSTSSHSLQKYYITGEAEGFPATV

Prepubescent female rats = test: Estrogenic / uterotrophic activity in vivo (uterus wet weight); parameters: species or system rat; conditions: Rattus norvegicus, po, 72 h, Table 4; orally 3 mg/rat/day for 3 days; read-out: % stimulation vs vehicle (uterus weight)
Description: Prepubescent female rats were orally treated at 3 mg/rat/day for 3 days. On the day following the last treatment, uteri were removed and wet weights were recorded.
The results are expressed as % of stimulation of uterus weight in comparison with vehicles. […]
Prepubescent female rats were orally treated with 0.3; 1; 3 or 10 mg/rat/day for 3 days. On the day following the last treatment, uteri were removed and wet weights were recorded.

Oc1ccc2c(C3CCCC3)nsc2c1 [Example 94, 3-cyclopentyl-1,2-benzisothiazol-6-ol]
melting point: 130 °C

COc1ccc(C2=COc3cc(O)cc4[nH]nc2c34)cc1.Cl
melting point: 255 °C

NS(=O)(=O)Oc1ccc2c(C34CC5CC(CC(C5)C3)C4)noc2c1 [Example 74, 3-(1-adamantyl)-1,2-benzisoxazol-6-yl sulfamate]
melting point: 87 °C

NS(=O)(=O)n1nc(C2CCCCCC2)c2ccc(O)cc21 [Example 39, 3-cycloheptyl-6-hydroxy-1H-indazole-1-sulfonamide]
melting point: 155 °C

Cn1nc(C2CCCCC2)c2ccc(S(N)(=O)=O)cc21 [Example 36, 3-cyclohexyl-1-methyl-1H-indazole-6-sulfonamide]
melting point: 188 °C

COc1ccc2c(C(C#N)Cc3ccc(O)cc3C)noc2c1 (centres unmarked) [Example 82, 2-(6-methoxy-1,2-benzisoxazol-3-yl)-3-(4-hydroxy-2-methylphenyl)-propanenitrile]
melting point: 131 °C

Cl.Oc1ccc2c(C34CC5CC(CC(C5)C3)C4)n[nH]c2c1 [Ex 31, 3-(1-adamantyl)-1H-indazol-6-ol, hydrochloride]
IC50 [1]: 36.2 ± 18.7 nM
selectivity for the human recombinant estrogen receptor β ([1]; in words): marked selectivity
RBA (%) Mean ± S.E.M, ER β [1]: 17.7 ± 5.1%
R (IC50s) αβ [1]: 3.3
activity at 1 µM [2]: 146%
activity at 0.01 µM [2]: 139%
EC50 [2]: 3.7 ± 0.7 nM
EC50 [3]: 30.8 ± 0.5 nM
estrogenic effect in alkaline phosphatase activity in the Ishikawa cell model ([3]; in words): weak estrogenic effect
IC50 [4]: 119 ± 45.2 nM
RBA (%) Mean ± S.E.M, ER α [4]: 3.1 ± 0.8%
change in vivo at 3 mg (Prepubescent female rats): 468%

Oc1ccc(-n2nc(C3CCCC3)c3ccc(O)cc32)cc1 [Example 26, 3-cyclopentyl-1-(4-hydroxyphenyl)-1H-indazol-6-ol]
melting point: 178 °C

c1ccc(COc2ccc3c(C4CCCCCC4)noc3c2)cc1 [Example 63, 6-benzyloxy-3-cycloheptyl-1,2-benzisoxazole]
melting point: 80 °C

N#CC(Cc1ccc(O)cc1)c1noc2cc(O)ccc12 (centres unmarked) [Ex 80, 2-(6-hydroxy-1,2-benzisoxazol-3-yl)-3-(4-hydroxyphenyl) propanenitrile]
IC50 [1]: 7.5 ± 0.7 nM
RBA (%) Mean ± S.E.M, ER β [1]: 43.0 ± 7.8%
R (IC50s) αβ [1]: 9.0
activity at 1 µM [2]: 147%
activity at 0.01 µM [2]: 110%
EC50 [2]: 45.2 ± 25.6 nM
EC50 [3]: 147 ± 39.9 nM
IC50 [4]: 67.5 ± 5 nM
RBA (%) Mean ± S.E.M, ER α [4]: 3.4 ± 0.4%
change in vivo at 3 mg (Prepubescent female rats): 70%

N#CC(Cc1ccc(O)cc1)c1ccc(O)cc1 (centres unmarked) [DPN, 2,3-bis-(4-hydroxyphenyl)propionitrile, reference compound]
change in vivo at 3 mg (Prepubescent female rats): 358%

NS(=O)(=O)Oc1ccc2c(C3CCCC3)nsc2c1 [Example 96, 3-cyclopentyl-1,2-benzisothiazol-6-yl sulfamate]
melting point: 132 °C

CCCc1c(-c2ccc(O)cc2)nn(-c2ccc(O)cc2)c1-c1ccc(O)cc1 [PPT, 1,3,5-tris-(4-hydroxyphenyl)-4-propyl-1H-pyrazole, reference compound]
change in vivo at 3 mg (Prepubescent female rats): 96%

Oc1ccc2c(C3CCCCC3)nn(Cc3ccccc3)c2c1 [Example 29, 1-benzyl-3-cyclohexyl-1H-indazol-6-ol]
melting point: 154 °C

NS(=O)(=O)Oc1ccc2c(C3CCCCC3)noc2c1 [Example 76, 3-cyclohexyl-1,2-benzisoxazol-6-yl sulfamate]
melting point: 145 °C

Cl.Oc1ccc2c(C3CCCC3)nn(CCN3CCCCC3)c2c1
melting point: 120 °C

Cn1nc(C2CCCCC2)c2ccc(O)cc21 [Example 25, 3-cyclohexyl-1-methyl-1H-indazol-6-ol]
melting point: 205 °C

Cl.Oc1ccc(C2=COc3cc(O)cc4[nH]nc2c34)cc1
melting point: 111 °C

NS(=O)(=O)Oc1ccc2c(C3CCCCCC3)noc2c1 [Example 75, 3-cycloheptyl-1,2-benzisoxazol-6-yl sulfamate]
melting point: 82 °C

Oc1ccc2c(C3CCCC3)nn(Cc3ccc(Br)cc3)c2c1 [Example 28, 1-(4-bromobenzyl)-3-cyclopentyl-1H-indazol-6-ol]
melting point: 147 °C

N#CC(Cc1ccc(O)c(F)c1)c1noc2cc(O)ccc12 (centres unmarked) [Ex 81, 2-(6-hydroxy-1,2-benzisoxazol-3-yl)-3-(3-fluoro-4-hydroxyphenyl)-propanenitrile]
melting point: 201 °C
IC50 [1]: 14.4 ± 5.3 nM
RBA (%) Mean ± S.E.M, ER β [1]: 35.9 ± 14.0%
R (IC50s) αβ [1]: 9.7
activity at 1 µM [2]: 117%
activity at 0.01 µM [2]: 86.8%
EC50 [2]: 635 ± 285 nM
IC50 [4]: 139 ± 33.9 nM
RBA (%) Mean ± S.E.M, ER α [4]: 2.4 ± 0.7%
change in vivo at 3 mg (Prepubescent female rats): 49%

CC/C(=C(\c1ccccc1)c1ccc(OCCN(C)C)cc1)c1ccccc1 [TAM, tamoxifen, reference compound]
change in vivo at 3 mg (Prepubescent female rats): 206%

Cl.Oc1ccc2c(C3CCCCCC3)n[nH]c2c1
melting point: 95 °C

Oc1ccc2c(C34CC5CC(CC(C5)C3)C4)noc2c1 [Example 64, 3-(1-adamantyl)-1,2-benzisoxazol-6-ol]
melting point: 215 °C
